T1: Phenylethanolamine N-methyltransferase (Bos taurus, UniProt P10938)
T1 sequence (P10938 whole entry): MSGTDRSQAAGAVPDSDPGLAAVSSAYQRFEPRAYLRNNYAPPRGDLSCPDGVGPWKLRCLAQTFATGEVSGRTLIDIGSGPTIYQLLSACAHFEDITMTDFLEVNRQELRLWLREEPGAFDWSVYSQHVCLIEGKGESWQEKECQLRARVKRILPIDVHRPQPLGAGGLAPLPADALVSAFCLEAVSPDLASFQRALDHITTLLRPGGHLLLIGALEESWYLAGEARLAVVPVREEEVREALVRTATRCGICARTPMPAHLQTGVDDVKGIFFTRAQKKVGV

B1: Phenylethanolamine N-methyltransferase (Bos taurus), P10938 (protein)
chain: T1 sequence (P10938 whole entry)

Experiments:
[1] = biological target: T1, Phenylethanolamine N-methyltransferase; assay: (§1) Inhibition of Phenylethylamine N-Methyltransferase (PNMT) using radiochemical assay
[2] = compound: N[C@@H]1CC2C[C@@H]1c1ccccc12; assay: as §1
[3] = compound: N[C@@H]1CC2CC1c1cccc(C(F)(F)F)c12; assay: as §1
[4] = compound: N[C@@H]1C2CCC1c1ccc(C(F)(F)F)cc1C2; assay: as §1
[5] = compound: NC1C2CC[C@H]1c1ccccc12; assay: as §1
[6] = compound: N[C@H]1C2CCC1c1cc(C(F)(F)F)ccc12; assay: as §1
[7] = compound: N[C@@H]1C2CCC1c1cccc(C(F)(F)F)c1C2; assay: as §1
[8] = compound: N[C@@H]1CC2CC1c1ccc(C(F)(F)F)cc12; assay: as §1

Molecule	Ki [1] [µM]	other results
N[C@H]1C2CCC1c1cccc(C(F)(F)F)c1C2 (some centres not stated)	1430	–
N[C@H]1C2CCC1c1c(cccc1C(F)(F)F)C2 (some centres not stated)	191	–
N[C@H]1C2CCC1c1ccccc1C2 (some centres not stated)	8900	–
N[C@@H]1C2CCC1c1c(cccc1C(F)(F)F)C2 (some centres not stated)	51.1	–
N[C@@H]1CC2CC1c1cc(C(F)(F)F)ccc12 (some centres not stated)	204	–
NC1C2CC[C@H]1c1ccccc12 (some centres not stated)	258	–
N[C@@H]1CC2CCC1c1ccccc12 (some centres not stated)	1300	–
N[C@H]1C2CCC1c1c2cccc1C(F)(F)F (some centres not stated)	12.1	–
N[C@@H]1C2CCC1c1cc(C(F)(F)F)ccc1C2 (some centres not stated)	31.8	–
N[C@H]1C2CCC1c1ccc(C(F)(F)F)cc1C2 (some centres not stated)	1800	–
NC1CCc2ccccc2C1 (configuration not stated)	15	–
N[C@H]1C2CCC1c1cc(C(F)(F)F)ccc1C2 (some centres not stated)	801	–
N[C@@H]1C2CCC1c1ccccc1C2 (some centres not stated)	106	–
N[C@@H]1CC2CC1c1c2cccc1C(F)(F)F (some centres not stated)	350	–
B1	–	Vmax [2]: 0.04 nmol/min/mg; Km [3]: 33 µM; Vmax [3]: 0.49 nmol/min/mg; Km [4]: 45.8 µM; Vmax [4]: 0.46 nmol/min/mg; Km [5]: 151 µM; Vmax [5]: 0.17 nmol/min/mg; Km [6]: 14.6 µM; Vmax [6]: 0.57 nmol/min/mg; Km [7]: 34.4 µM; Vmax [7]: 0.52 nmol/min/mg; Km [8]: 52 µM; Vmax [8]: 1.38 nmol/min/mg

From ChEMBL document CHEMBL1123862, “Binding orientation of amphetamine and norfenfluramine analogues in the benzonorbornene and benzobicyclo[3.2.1]octane ring systems at the active site of phenylethanolamine N-methyltransferase (PNMT)” (J Med Chem, 1987)
